Source: ChEMBL document CHEMBL4229482, “Design, synthesis and biological evaluation of novel spiro-pentacylamides as acetyl-CoA carboxylase inhibitors” (Bioorg Med Chem, 2018)

Legend:
Acetyl-CoA carboxylase 2 = Acetyl-CoA carboxylase 2 (Homo sapiens, UniProt O00763); assay: Inhibition of C-terminal His-tagged full length human ACC2 expressed in Baculovirus infected Sf9 insect cells using acetyl CoA as substrate preincubated for 15 mins followed by substrate addition and measured after 60 mins by ADP-Glo assay
SW-620 = assay: cells; conditions: Homo sapiens, SW-620, 48 h
Description: Antiproliferative activity against human SW620 cells after 48 hrs by MTT assay

A549 = assay: cells; conditions: Homo sapiens, A549, 48 h
Caco-2 = assay: Antiproliferative activity against human Caco2 cells after 48 hrs by MTT assay; format: functional, cell-based; conditions: Caco-2, 48 h
HCT-116 = assay: cells; conditions: Homo sapiens, HCT-116, 48 h
NCI-H1975 = assay: Antiproliferative activity against human NCI-H1975 cells after 48 hrs by MTT assay; format: functional, cell-based; conditions: NCI-H1975, 48 h
Acetyl-CoA carboxylase 1 = Acetyl-CoA carboxylase 1 (Homo sapiens, UniProt Q13085); assay: Inhibition of C-terminal His-tagged recombinant human ACC1 (1 to 2383 residues) expressed in Baculovirus infected Sf9 insect cells using acetyl CoA as substrate preincubated for 15 mins followed by substrate addition and measured after 60 mins by ADP-Glo assay

Chain of Acetyl-CoA carboxylase 2 (O00763 whole entry): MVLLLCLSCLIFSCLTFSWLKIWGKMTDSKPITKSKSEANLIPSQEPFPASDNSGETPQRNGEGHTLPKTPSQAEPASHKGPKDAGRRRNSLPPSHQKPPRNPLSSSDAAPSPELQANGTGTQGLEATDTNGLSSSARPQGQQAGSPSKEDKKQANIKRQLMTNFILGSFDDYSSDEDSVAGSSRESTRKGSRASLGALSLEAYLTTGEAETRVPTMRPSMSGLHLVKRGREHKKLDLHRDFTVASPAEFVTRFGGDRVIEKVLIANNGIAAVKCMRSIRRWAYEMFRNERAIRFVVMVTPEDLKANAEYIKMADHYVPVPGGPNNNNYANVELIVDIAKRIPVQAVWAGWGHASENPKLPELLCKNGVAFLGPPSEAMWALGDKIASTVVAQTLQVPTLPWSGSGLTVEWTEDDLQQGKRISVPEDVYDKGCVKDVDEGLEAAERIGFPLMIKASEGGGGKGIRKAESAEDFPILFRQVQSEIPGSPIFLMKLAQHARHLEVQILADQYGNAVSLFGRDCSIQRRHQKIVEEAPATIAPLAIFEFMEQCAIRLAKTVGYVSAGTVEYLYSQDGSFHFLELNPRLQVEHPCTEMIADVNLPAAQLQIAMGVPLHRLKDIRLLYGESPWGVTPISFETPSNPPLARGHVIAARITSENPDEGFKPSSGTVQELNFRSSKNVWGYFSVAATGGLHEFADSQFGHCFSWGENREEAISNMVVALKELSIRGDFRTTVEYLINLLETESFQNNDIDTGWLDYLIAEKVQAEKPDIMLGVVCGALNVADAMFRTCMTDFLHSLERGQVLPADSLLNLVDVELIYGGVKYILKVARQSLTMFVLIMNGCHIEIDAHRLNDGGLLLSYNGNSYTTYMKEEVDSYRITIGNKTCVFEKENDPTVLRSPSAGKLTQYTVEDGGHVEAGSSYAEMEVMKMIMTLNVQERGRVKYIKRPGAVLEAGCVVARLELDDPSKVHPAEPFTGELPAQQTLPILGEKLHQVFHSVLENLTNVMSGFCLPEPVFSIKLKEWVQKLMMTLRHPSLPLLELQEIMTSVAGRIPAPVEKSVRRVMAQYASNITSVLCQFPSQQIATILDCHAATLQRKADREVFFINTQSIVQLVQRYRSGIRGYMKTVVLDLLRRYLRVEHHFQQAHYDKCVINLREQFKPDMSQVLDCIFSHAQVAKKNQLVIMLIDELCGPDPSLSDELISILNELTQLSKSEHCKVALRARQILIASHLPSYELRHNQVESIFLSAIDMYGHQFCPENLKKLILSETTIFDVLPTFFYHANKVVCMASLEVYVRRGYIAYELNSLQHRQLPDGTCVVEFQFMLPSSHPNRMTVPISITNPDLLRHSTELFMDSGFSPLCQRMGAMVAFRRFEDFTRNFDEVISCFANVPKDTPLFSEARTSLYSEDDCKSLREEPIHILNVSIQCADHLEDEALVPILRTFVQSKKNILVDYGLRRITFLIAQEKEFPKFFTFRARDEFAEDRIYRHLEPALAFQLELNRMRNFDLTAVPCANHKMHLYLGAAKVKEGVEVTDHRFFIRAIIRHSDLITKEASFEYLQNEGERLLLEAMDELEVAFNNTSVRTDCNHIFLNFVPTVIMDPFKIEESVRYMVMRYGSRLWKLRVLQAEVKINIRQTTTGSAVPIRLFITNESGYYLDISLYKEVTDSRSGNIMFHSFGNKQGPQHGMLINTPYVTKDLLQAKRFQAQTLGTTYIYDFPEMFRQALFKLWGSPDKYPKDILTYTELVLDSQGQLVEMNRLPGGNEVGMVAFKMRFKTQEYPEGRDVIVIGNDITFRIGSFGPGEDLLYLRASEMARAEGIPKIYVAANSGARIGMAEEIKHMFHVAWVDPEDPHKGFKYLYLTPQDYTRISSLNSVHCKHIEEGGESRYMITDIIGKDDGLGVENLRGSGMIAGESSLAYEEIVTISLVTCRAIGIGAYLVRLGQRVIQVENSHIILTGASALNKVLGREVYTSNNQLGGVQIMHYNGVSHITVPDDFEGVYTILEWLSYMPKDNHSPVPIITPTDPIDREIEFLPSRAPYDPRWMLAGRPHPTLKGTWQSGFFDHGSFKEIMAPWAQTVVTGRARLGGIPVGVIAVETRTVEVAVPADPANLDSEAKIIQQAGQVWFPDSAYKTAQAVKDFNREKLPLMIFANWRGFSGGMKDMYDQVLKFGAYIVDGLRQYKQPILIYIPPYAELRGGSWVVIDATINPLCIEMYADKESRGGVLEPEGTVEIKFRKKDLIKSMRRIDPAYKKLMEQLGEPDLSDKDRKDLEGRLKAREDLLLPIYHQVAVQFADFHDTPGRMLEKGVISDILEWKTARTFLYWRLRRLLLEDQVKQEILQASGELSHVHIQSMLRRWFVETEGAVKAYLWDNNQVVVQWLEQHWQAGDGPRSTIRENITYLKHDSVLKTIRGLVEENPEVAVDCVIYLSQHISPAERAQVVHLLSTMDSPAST

| SMILES | IC50 (Acetyl-CoA carboxylase 2) [µM] | IC50 (SW-620) [µM] | IC50 (A549) [µM] | IC50 (Caco-2) [µM] | IC50 (HCT-116) [µM] | IC50 (NCI-H1975) [µM] | IC50 (Acetyl-CoA carboxylase 1) [µM] |
| --- | --- | --- | --- | --- | --- | --- | --- |
| O=C(c1ccc2[nH]c(-c3ccccc3)nc2c1)N1CCC2(CC1)CC(=O)N(c1ccc(C(F)(F)F)cc1)C2 | 0.397 | 2.05 | 1.92 | 5.42 | 1.22 | 0.38 | 0.527 |
| Cc1cc(C(=O)N2CCC3(CC2)CC(=O)N(c2ccc(C#N)cc2)C3)cc2cn[nH]c12 | > 5 | – | – | – | – | – | 3.99 |
| O=C(c1ccc2ncccc2c1)N1CCC2(CC1)CC(=O)N(c1ccc(C(F)(F)F)cc1)C2 | > 5 | – | – | – | – | – | > 5 |
| CCCc1nc2cc(C(=O)N3CCC4(CC3)CC(=O)N(c3ccc(C(F)(F)F)cc3)C4)cc(C)c2[nH]1 | 1.94 | 1.82 | > 10 | > 10 | 4.21 | 0.27 | 1.69 |
| CC(C)c1ccc(-c2nc3cc(C(=O)N4CCC5(CC4)CC(=O)N(c4ccc(C(F)(F)F)cc4)C5)ccc3[nH]2)cc1 | 0.764 | > 10 | 1.03 | > 10 | 6.21 | > 10 | 1.15 |
| O=C(c1ccc2cccnc2c1)N1CCC2(CC1)CC(=O)N(c1ccc(C(F)(F)F)cc1)C2 | > 5 | – | – | – | – | – | 4.92 |
| O=C(c1ccc2[nH]c3c(c2c1)CCCC3)N1CCC2(CC1)CC(=O)N(c1ccc(C(F)(F)F)cc1)C2 | 1.11 | 4.74 | > 10 | – | 8.67 | – | 1.95 |
| O=C(c1ccc2cc[nH]c2c1)N1CCC2(CC1)CC(=O)N(c1ccc(C(F)(F)F)cc1)C2 | > 5 | – | – | – | – | – | 4.95 |
| O=C(c1cnc2ccccc2c1)N1CCC2(CC1)CC(=O)N(c1ccc(C(F)(F)F)cc1)C2 | > 5 | – | – | – | – | – | > 5 |
| Cc1cc(N2CC3(CCN(C(=O)c4cc(C)c5[nH]ncc5c4)CC3)CC2=O)ccc1C#N | 3.77 | – | – | – | – | – | 2.01 |
| COC(=O)c1ccc(N2CC3(CCN(C(=O)c4cc(C)c5[nH]ncc5c4)CC3)CC2=O)cc1 | 1.88 | > 10 | 2.11 | > 10 | > 10 | 5.64 | 2.24 |
| Cc1nc2cc(C(=O)N3CCC4(CC3)CC(=O)N(c3ccc(C(F)(F)F)cc3)C4)ccc2[nH]1 | 3.02 | – | – | – | – | – | 2.22 |
| O=C(c1ccc2[nH]c(-c3ccncc3)nc2c1)N1CCC2(CC1)CC(=O)N(c1ccc(C(F)(F)F)cc1)C2 | 1.24 | 7.24 | 3.49 | > 10 | 7.64 | 0.39 | 2.65 |
| O=C(c1ccc2[nH]c(-c3ccco3)nc2c1)N1CCC2(CC1)CC(=O)N(c1ccc(C(F)(F)F)cc1)C2 | 0.976 | 3.26 | 7.96 | – | > 10 | 0.72 | 1.05 |
| Cc1cc(C(=O)N2CCC3(CC2)CC(=O)N(c2ccc(C#N)cc2F)C3)cc2cn[nH]c12 | > 5 | – | – | – | – | – | 3.56 |
| O=C(c1ccc2[nH]ccc2c1)N1CCC2(CC1)CC(=O)N(c1ccc(C(F)(F)F)cc1)C2 | > 5 | – | – | – | – | – | > 5 |
| Cc1cc(C(=O)N2CCC3(CC2)CC(=O)N(c2ccc(C(=O)O)cc2)C3)cc2cn[nH]c12 | 4.65 | – | – | – | – | – | 2.79 |
| O=C(c1ccc2[nH]c3c(c2c1)CCC3)N1CCC2(CC1)CC(=O)N(c1ccc(C(F)(F)F)cc1)C2 | 3.48 | – | – | – | – | – | 4.27 |
| Cc1cc(C(=O)N2CCC3(CC2)CC(=O)N(c2ccc(C(F)(F)F)cc2)C3)cc2cn[nH]c12 | 0.944 | > 10 | > 10 | > 10 | 8.67 | > 10 | 1.2 |
| Cc1cc(C(=O)N2CCC3(CC2)CC(=O)c2nn(C(C)(C)C)cc2O3)cc2cn[nH]c12 | 0.008 | 3.19 | 0.74 | 6.51 | 2.43 | 0.21 | 0.032 |
| O=C(c1ccc2cn[nH]c2c1)N1CCC2(CC1)CC(=O)N(c1ccc(C(F)(F)F)cc1)C2 | 2.74 | – | – | – | – | – | 4.73 |
